Series [1] in a line: Shake-flask drug solubility in absence of excipient (reference solubility). The following applies: for solubility at 0.5 h: 37 °C, read-out: Solubility of pure drug. The series is classed as physicochemical. Here is the method: (§1) Compendial media (0.1 N HCl pH 1, phosphate buffer pH 6.8) were prepared according to the method described in the European Pharmacopoeia ([43]). Fasted State Simulated Gastric Fluid (FaSSGF) and Fasted State Simulated Intestinal Fluid (FaSSIF-V2) were prepared as described by Jantratid et al. ([44]).
(§2) Drug solubility studies in the absence and presence of excipient were performed in triplicate using the shake-flask method ([45]). Drug excess amount and 2% w/w or 5% w/w of each excipient were weighed and placed in centrifuge tubes. […] The physical mixtures were vortexed for 3 min. Five millilitres of each medium was added in the tubes and the samples were placed in a shaking water bath (37 °C, 200 strokes per minute (spm)). […] Filter adsorption studies were prior performed in triplicate for each drug. […] Filtered samples were further diluted (if needed) with the corresponding medium and analysed by HPLC (Supplementary Table I). Analytical procedures for drug quantification in the samples were modifications of already published methods. Drug quantification was made based on calibration curves. Standards were formulated from concentrated stock solutions consisting of drug dissolved in MeOH. As drug solubility can be influenced by the changes in the pH of solutions by presence of dissolved drug ([38]), the pH of samples after the completion of each experiment was measured. Drug solubility was calculated based on the sample drug concentration measured.

For series [2] the following is noted: cited from earlier work; for Solubility (BCS classification): based on the compound's BCS classification; for Lipophilicity (log P): experimental values.
Series [3] can be described thus: Relative effect (RE) of HPMC brands on drug apparent solubility, shake-flask with drug/excipient physical mixtures. Type of series: physicochemical. The following applies: FaSSIF-V2. The procedure: as §1
as §2, with “Standards were formulated from concentrated stock solutions consisting of drug dissolved in MeOH.” left out

Series [4] can be described thus: Theoretical % of drug ionized (Henderson-Hasselbalch equation at the pH of each medium). Type of series: physicochemical.

≈ marks a conversion by molar mass, not a printed value. Where two headings read alike, the source gives them in different places. Marks after values point to notes of the source that are not given here.

The term solubility denotes the dissolved amount per volume that the medium holds. `NC(=O)N1c2ccccc2C=Cc2ccccc21` [CBZ, carbamazepine]: in series [1] (pH 1.6, fassgf or other biorelevant, thermodynamic from solid, FaSSGF, 0.5 h), the solubility at 0.5 h was found to be 387 µg/mL (≈ 1640 µM). The solubility at 0.5 h in series [1] (pH 6.5, thermodynamic from solid, FaSSIF-V2, 0.5 h) is 307 µg/mL (≈ 1300 µM). In series [2], the “Solubility (BCS classification)” value was “Low ([30])” and the “Lipophilicity (log P)” value was 2.45 ([29]). Besides, the pKa entry in series [2] (ref DrugBank) is “Neutral (pKa=15)^a”. Further, the “Relative effect (RE) on drug apparent solubility” value in series [3] (all the studied HPMC brands, 24 h) is on record as “approximately 60%”.

Take `OCCN(CCO)c1nc(N2CCCCC2)c2nc(N(CCO)CCO)nc(N3CCCCC3)c2n1` [DPL, dipyridamole]: the “% of drug ionized” value in series [4] (FaSSIF-V2) came out at 34%; in series [4] (phosphate buffer pH 6.8) it was 20.1%. Moreover, the “Solubility (BCS classification)” value in series [2] is “Low ([38])”. Also, the “Effect of HPMC presence on drug apparent solubility” value in series [3] is on record as “did not affect”.

As to `CC(C)Cc1ccc(C(C)C(=O)O)cc1` (centres unmarked) [IBU, Ibuprofen], the “Lipophilicity (log P)” value in series [2] was 4.00 ([33]).

Turning to `CCC(C)n1ncn(-c2ccc(N3CCN(c4ccc(OCC5COC(Cn6cncn6)(c6ccc(Cl)cc6Cl)O5)cc4)CC3)cc2)c1=O` (centres unmarked) [ITZ, itraconazole], in series [1] (aqueous buffer, thermodynamic from solid, Phosphate buffer pH 6.8, 37 °C, mean ± SD, n = 3), the solubility at 24 h is less than 0.015 µg/mL. For the same compound, in series [2], the “Solubility (BCS classification)” value is “Low ([40])”, the pKa result is “Weak base (pKa=4.5) ([39])” and the “Lipophilicity (log P)” value was 6.20 ([39]).

In the case of `CC(=O)Nc1ccc(O)cc1` [PRC, paracetamol], in series [2], the pKa result is “Neutral (pKa=9.38) ([28])” and the “Lipophilicity (log P)” value was 0.20 ([28]).

These data come from article PMC7028811, “Biopharmaceutical Understanding of Excipient Variability on Drug Apparent Solubility Based on Drug Physicochemical Properties: Case Study—Hypromellose (HPMC)” (The AAPS Journal, 2020).
